Data taken from PubChem BioAssay (NCI).
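1) Cells in 96-well plates. 2) Compound, 48 h, 5 concentrations. 3) Linear interpolation between surrounding doses. 4) Unreached endpoint = highest concentration. GI50: concentration for 50% inhibition of growth. Definition used: TGI = concentration required for complete inhibition of growth.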

Columns and labels:
Assay in all cases: NCI anticancer screen, dose series, 48 h
A549 NSCLC = system: A549 NSCLC
BT-549 breast = system: BT-549 breast
COLO 205 colon = system: COLO 205 colon
DU-145 prostate = system: DU-145 prostate
NCI/ADR-RES ovarian = system: NCI/ADR-RES ovarian

SMILES	GI50 (A549 NSCLC) [µM]	TGI (A549 NSCLC) [µM]	GI50 (BT-549 breast) [µM]	TGI (BT-549 breast) [µM]	GI50 (COLO 205 colon) [µM]	TGI (COLO 205 colon) [µM]	GI50 (DU-145 prostate) [µM]	TGI (DU-145 prostate) [µM]	GI50 (NCI/ADR-RES ovarian) [µM]	TGI (NCI/ADR-RES ovarian) [µM]
CCCCCC[C@H](C)NC(=O)c1ccc(Nc2nc3ccccc3c3occc23)cc1	4.35	> 100	2.79	6.54	3.07	8.45	3.07	8.87	2.48	6.99
C=C1C(=O)O[C@H]2[C@H]1CC/C(COC(=O)NCCCCCCCCNC(=O)OC/C1=C/CC[C@@]3(C)O[C@H]3[C@H]3OC(=O)C(=C)[C@@H]3CC1)=C\CC[C@@]1(C)O[C@@H]21	1.7	3.51	0.257	0.748	0.3	0.756	1.1	2.3	3.91	18.7
C#Cc1cccc(NC(=O)c2ccc(NC(=O)CCl)cc2)c1	> 82.5	> 82.5	11.1	23.9	23.7	> 82.5	> 82.5	> 82.5	19.6	67.1
FC(F)(F)c1cc(Nc2ccc3cc(OCCCN4CCOCC4)ccc3n2)ccc1Cl	1.93	4.3	1.74	4.07	1.74	3.49	3.17	13.3	2.69	18
CCN(Cc1ccc(F)cc1)c1ccc(CO)c(OC)c1	40.1	> 100	7.7	32.7	13.4	29.7	27.6	> 95.2	17.6	55.5
COCc1c(-c2ccc(NC(=O)Nc3cc(C(F)(F)F)ccc3F)c(F)c2)c2c(N)ncnn2c1CN1CCOCC1	2.53	> 10	0.776	6.13	1.05	2.71	2.09	> 10	3.12	> 10
COc1ccc(N(C)c2nc(Cl)nc3cnn(C)c23)cc1	< 0.0117	> 100	0.0207	> 71.6	< 0.01	0.058	0.0171	> 100	< 0.01	> 100
Cc1ccc(S(=O)(=O)Nc2ccc(-c3cc(-c4cccc(F)c4)c(C#N)c(N)n3)cc2)cc1	3.11	15.7	1.35	2.78	2.18	4.48	2.33	5.45	2.92	10.8
N#CC1C(=O)NC(c2ccccc2[N+](=O)[O-])c2sc3c(F)cccc3c21 (configuration not stated)	1.72	36.1	14.9	61.5	8.05	58.4	8.16	46.1	8.06	39.8
Nc1ncnc2c1ccn2[C@@H]1O[C@H]([C@H](O)c2ccc(Cl)c(F)c2)[C@@H](O)[C@H]1O	> 100	> 100	> 100	> 100	> 100	> 100	> 100	> 100	> 100	> 100
C/C(=N/N=C(N)N)c1ccc(NC(=O)Nc2ccc(/C(C)=N/N=C(N)N)cc2)cc1	19.4	54.8	14.8	38.7	43.3	> 100	11.2	40.1	18	> 100
O=C1NC(c2cccc(OCc3ccccc3)c2)Nc2ccccc21 (configuration not stated)	–	> 49.6	–	–	–	2.64	–	–	–	0.468
c1ccc(N/N=C2\NN=C(c3ccccc3)CS2)cc1	–	22.2	–	–	–	–	–	–	–	–
Cc1nccc2c3ccc(OCc4cn(-c5ccc(Cl)cc5)nn4)cc3n(CC(C)C)c12	2.29	13	1.51	7.12	1.51	6.8	11.5	> 33.3	1.73	30.8
Cn1c2ccccc2c2c(=O)n(CCCC(=O)OC(=NC3CCCCC3)NC3CCCCC3)c3c(-c4ccccc4)nnn3c21	> 100	> 100	72	> 100	> 100	> 100	> 100	> 100	94.9	> 100
O=c1c(Cl)cc2nc3ccccc3sc-2c1Cl	–	40.9	–	24.6	–	38	–	25.8	–	56.9
CCCCCCCC(=O)[O][Hg][CH2]C1COC([CH2][Hg][O]C(=O)CCCCCCC)CO1 (configuration not stated)	20.3	47.2	11.1	23.1	3.72	14.6	18.1	32.2	20.2	49.6

SMILES	GI50 (A549 NSCLC) [µM]	TGI (A549 NSCLC) [µM]	GI50 (BT-549 breast) [µM]	TGI (BT-549 breast) [µM]	GI50 (COLO 205 colon) [µM]	TGI (COLO 205 colon) [µM]	GI50 (DU-145 prostate) [µM]	TGI (DU-145 prostate) [µM]	GI50 (NCI/ADR-RES ovarian) [µM]	TGI (NCI/ADR-RES ovarian) [µM]
COC(=O)[C@]12CC[C@@H](C)[C@H](C)[C@@H]1C1=CC[C@@H]3[C@@]4(C)C(C=O)=C[C@@](C)(COC(=O)/C=C/c5ccccc5)[C@@H]4[C@H](O)C[C@@]3(C)[C@]1(C)CC2	3.73	22	6.05	63.9	2.3	5.33	4.96	25.9	3.64	19.1
O=[N+]([O-])c1ccc(Sc2ccncn2)c([N+](=O)[O-])c1	4.3	16.4	2.7	7.55	2.55	6.5	2.14	9.17	4.46	14.1
COc1cccc(Nc2nccc(-c3cnn4ncccc34)n2)c1	0.0698	–	0.0714	6.71	0.0433	0.0988	0.0884	> 25	0.0679	–
CSc1ccc(C(=O)/C=C/c2ccccc2Cl)cc1	15.1	30.5	15.4	32.9	33.5	> 100	13.9	29	18.9	40.1
COc1cc(/C=C2\C[C@H]3[C@@H]4CC=C5C[C@@H](OC(C)=O)CC[C@]5(C)[C@H]4CC[C@]3(C)[C@H]2OC(C)=O)ccc1OCCN1CCCC1	10.9	21.6	–	–	13.3	> 50	1.3	9.69	10.2	20.6
CN1CCN(Cc2ccc(NC(=O)c3cncc(C#Cc4cnc(N)c5cnccc45)c3)cc2C(F)(F)F)CC1	0.511	7.79	1.08	7.23	0.0982	6	0.214	6.21	6.02	15.9
O=C(/C=C/OC(=O)c1cccc(Cl)c1)c1ccc(Cl)cc1	> 100	> 100	30.3	> 77	> 65	> 100	44	> 100	63.9	> 100
O=[N+]([O-])c1cc2c([N+](=O)[O-])cccc2o1	–	> 100	–	31.9	–	16.5	–	42	–	32.6
COc1cc(/C=C/C(=O)c2c(C)nc3ccccc3c2C)ccc1OCCCN1CCN(C(=O)c2ccco2)CC1	11.3	27.3	4.86	23.3	11	23	9.78	21.4	5.55	45.2
CCCN1CCC(c2ccc(Nc3nc(Nc4cc(F)ccc4C(N)=O)c4cc[nH]c4n3)c(OC)c2)CC1	0.154	4.68	4.16	8.19	0.0183	1.78	1.02	4.92	3.2	8.37
CCn1ccc(NS(=O)(=O)c2ccc(N)cc2)nc1=O	> 100	> 100	> 100	> 100	> 100	> 100	> 100	> 100	> 100	> 100
O=C(O)Cc1cccc2c(=O)c3cccc([N+](=O)[O-])c3oc12	–	> 100	–	> 100	–	> 100	–	> 100	–	–
COCCn1cc(-c2csc(-c3c[nH]c4ccc(Br)cc34)n2)c2cccnc21	6.89	> 100	4.8	27	3.22	34	–	–	2.86	> 100
[CH3][Sn]([CH3])([CH3])[O][N+](=O)[O-]	> 10	> 10	–	–	> 10	> 10	> 10	> 10	2.3	5.7
O=C(O[C@H]1CCN2C[C@H]3C[C@H](CN4C(=O)CCC[C@H]34)[C@@H]2C1)c1ccc(O)cc1	–	> 100	–	> 100	–	> 100	–	> 100	–	–
CC1=C([Se]CC(OC(=O)[C@@H](CO)NC(=O)OC(C)(C)C)C(=O)NCCCCCC(=O)OCc2ccccc2)C(=O)c2ccccc2C1=O (some centres not stated)	1.37	3.07	1.73	3.11	1.82	3.35	1.82	3.26	–	–
